# Assay results as given in the OPERA property sets (Mansouri et al. 2018).
# Conditions: not given
SMILES,melting point [°C],boiling point [°C],log10 Henry constant (atm·m³/mol),log10 Koa,log10 Koc (L/kg),log10 vapour pressure (mmHg),ready biodegradability,log10 biodegradation half-life (days)
CC[C@H](Br)C(=O)O,-4,,,,,,,
CN(C)CCCNc1c2ccccc2nc2cccc([N+](=O)[O-])c12,134,,,,,,,
CC=CCCc1ccccn1,,216,,,,,,
CCCCC(C(=O)OCC)C(=O)OCC,,238,,,,,,
Clc1ccc(Cl)c(-c2cc(Cl)c(Cl)cc2Cl)c1,,,-4.05,9.06,5.22,-4.6,,
O=C(O)C(F)(F)C(F)(F)C(=O)O,119,,,,,,,
CCCNC(C)C(=O)Nc1ccccc1C (centres undefined),37.5,,,,,,,
CC(=O)OC(c1ccccc1)C(Cl)(Cl)Cl (centres undefined),87.5,,,,,,,
C/C=C/C#N,-51.5,,,,,,,
Cc1ccc2c(c1)CCCC2(C)C,,240,,,,,,
CNc1ccc(C(=O)O)cc1,,,,,,,not readily biodegradable,
O=C(O)c1ccccc1S(=O)(=O)O,141,,,,,,not readily biodegradable,
Oc1cccc2[nH]ccc12,100,,,,,,,
CCN=C=O,,60,,,,,,
CC[SiH](CC)CC,,109,,,,,,
CCCCCCCCCCSSCCCCCCCCCC,,,,,,,not readily biodegradable,
Nc1cccc(C(=O)c2cccc(N)c2)c1,174,,,,,,,
C#CC(C)(O)CC (centres undefined),30.5,120,,,,0.72,readily biodegradable,
Cc1ccc(N=Cc2ccccc2)cc1,35,318,,,,,,
O=C(O)C1CCCCN1 (centres undefined),264,,,,,,,
CCN(CC)C(=O)c1ccccc1C(=O)N(CC)CC,36,,,,,,,
Cc1cc2ccccc2nc1C,68.5,263,,,,,,
CCCC(C)(C)O,-103,121,,,,0.934,,
NC(=S)Nc1ccccc1Cl,146,,,,,,,
CCCCCCCCCCCCCCCCCC#N,41,362,,,,,,
CCOO,-100,95,-5.53,,,,,

SMILES,melting point [°C],boiling point [°C],log10 Henry constant (atm·m³/mol),log10 Koa,log10 Koc (L/kg),log10 vapour pressure (mmHg),ready biodegradability,log10 biodegradation half-life (days)
CC(Cl)=CCl,,,,,,1.96,,
O=[N+]([O-])c1cc(Cl)cc(Cl)c1O,122,,,,,,not readily biodegradable,
CC1=CCCC(=O)C1,-21,201,,,,,,
ClC(Cl)(Cl)I,-7.8,142,,,,,,
CCCCCCCCS,-49.2,199,,,,-0.372,,
O=C(C=NO)c1ccccc1,129,,,,,,,
CC(=O)c1cccc([N+](=O)[O-])c1,81,202,,,,,,
C=CC(O)CO (centres undefined),,196,,,,,,
NS(=O)(=O)c1ccc(SCCO)cc1,112,,,,,,,
Nc1c(F)cc(F)cc1F,35,,,,,,,
CCCCC[C@H](O)/C=C/[C@H]1[C@H](O)CC(=O)[C@@H]1C/C=C\CCCC(=O)O,67,,,,,,,
COc1ccccc1OCC(O)COC(N)=O (centres undefined),93,,,,,,not readily biodegradable,
C1CSCS1,-50,175,,,,,,
C=CC1(C)CC(OC(=O)CO)C2(C)C(C)CCC3(CCC(=O)C32)C(C)C1O (centres undefined),170,,,,,,,
CCCCCCC(Cl)Cl,,191,,,,,,
CC1CC(C)(C)CC(OOC(C)(C)C)(OOC(C)(C)C)C1 (centres undefined),-30,,,,,,not readily biodegradable,
CCCCCCCC=O,-23,171,-3.29,5.36,,0.0719,,
FCC(F)(F)F,-101,-26,-1.3,,,3.7,,
O=C(O)c1ccc2c(c1)C(=O)OC2=O,162,390,,,,-5.01,readily biodegradable,
O=C(O)c1cc2ccccc2cc1O,222,,,,,,not readily biodegradable,
CCC1C(C)=NN=C(c2ccc(OC)c(OC)c2)c2cc(OC)c(OC)cc21 (centres undefined),156,,,,,,,
CN(CCO)CCO,-21,247,,,,-3.7,not readily biodegradable,
CCOC(=O)c1ccccc1[N+](=O)[O-],30,275,,,,,,
Cl.NCC(F)(F)F,195,,,,,,,
CC(C)(C)NC[C@H](O)COc1ccccc1C1CCCC1,70,,,,,,,
CCC(CC)COC(=O)CCCCC(=O)OCC(CC)CC,-15,,,,,,,

SMILES,melting point [°C],boiling point [°C],log10 Henry constant (atm·m³/mol),log10 Koa,log10 Koc (L/kg),log10 vapour pressure (mmHg),ready biodegradability,log10 biodegradation half-life (days)
CCC1(C(C)C)C(=O)NC(=O)NC1=O,203,,,,,,,
NS(=O)(=O)c1ccc(S(=O)(=O)CCO)cc1,165,,,,,,,
CC1=CCc2ccccc21,,198,,,,,,0.477
CCCCOC(=O)c1ccccc1C(=O)OCCCC,-35,340,-5.74,,3.14,-4.7,readily biodegradable,
OCC1CCCO1 (centres undefined),,178,,,,-0.0964,readily biodegradable,
O=C(O)c1ccc([N+](=O)[O-])cc1,242,,,,,,readily biodegradable,
CN1CCN(C2=Nc3ccccc3Cc3ccccc32)CC1,137,,,,,,,
CC(C)C=CCO,,159,,,,,,
CCN=Cc1ccccc1,,196,,,,,,
OCc1cc(O)ccc1O,100,,,,,,,
O=C1CCCCCCC1,29,196,,,,-0.389,,
CC1(C)[C@H](C=C(Cl)Cl)[C@H]1C(=O)OCc1c(F)c(F)cc(F)c1F,32,,,,,-5.52,,
CCOCCC(OCC)OCC,53,185,,,,,,
CC(C)(C#N)/N=N/C(C)(C)C#N,102,,,,,,,
O=Cc1cccc(Br)c1,,234,,,,,,
OC1CCCCCCCCCCC1,77.5,,-5.53,,,,,
C=C(C)CC(C)C,-124,81.6,,,,1.98,,
CCCCC(C)CCC (centres undefined),-113,142,,,,0.835,,0.699
C=CCNCCC,,112,,,,,,
CN(CCO)c1nc2c(c(=O)n(C)c(=O)n2C)n1C,105,,,,,,,
NCc1cccc(CN)c1,,247,,,,,not readily biodegradable,
Cc1cc(C)c(C)c(C)c1C,54.5,232,,,,-1.46,,
CCCC(Cn1cncn1)c1ccc(Cl)cc1Cl (centres undefined),58.5,,,,,-5.56,,
CN(C)CCn1cnc2c1c(=O)n(C)c(=O)n2C,95,,,,,,,
O=C(O)c1c(Cl)ccc2cc(Cl)cnc12,274,,,,,,,
CC(O)C(=O)O (centres undefined),40.9,,,,,-1.09,readily biodegradable,

SMILES,melting point [°C],boiling point [°C],log10 Henry constant (atm·m³/mol),log10 Koa,log10 Koc (L/kg),log10 vapour pressure (mmHg),ready biodegradability,log10 biodegradation half-life (days)
NC[C@H](O)c1ccccc1,56.5,,,,,,,
Cc1ccc(O)c(C)c1,24.5,211,-6.02,,,-0.991,readily biodegradable,
CCC[C@H]1CCCCC1=O,,197,,,,,,
NCCOB(c1ccccc1)c1ccccc1,193,,,,,,,
CN(O)CCO,,,,,,,readily biodegradable,
Cc1ccc2ccccc2c1[N+](=O)[O-],81.5,,,,,,,
c1nnn[nH]1,157,,,,,,,
CCCCS(=O)(=O)O,-15.2,,,,,,,
CC(=O)NC(CCC(N)=O)C(=O)O (centres undefined),197,,,,,,,
CCCCC(C(=O)O)C(=O)N(Nc1ccccc1)c1ccccc1 (centres undefined),116,,,,,,,
C/C(=C/c1ccccc1)CC(N)=O,133,,,,,,,
CCCCCC(N)=O,101,255,,,,,,
ON=C(C(=NO)c1ccccc1)c1ccccc1,240,,,,,,,
CI,-66.4,42.5,-2.28,2.16,,2.61,,
O=[N+]([O-])C1CCCCC1,-34,205,,,,,,
COc1cc(CCO)ccc1O,41,,,,,,,
CCCCOC(=O)CC,-89,147,,,,0.645,,
CCC(=O)Cl,-94,80,,,,,,
CCCCCCCC(=O)Oc1c(Br)cc(C#N)cc1Br,45.5,,,,4,-5.32,readily biodegradable,
CCC1(c2ccccc2)C(=O)NC(=O)N(C)C1=O (centres undefined),176,,,,,,,
CC(C)[N+](C)(CCOC(=O)C1c2ccccc2Oc2ccccc21)C(C)C.[Br-],160,,,,,,,
CC(=O)OCCOCCOC(C)=O,18,200,,,,,,
C=Cc1cccc(C=C)c1,-52.3,,,,,-0.237,not readily biodegradable,
CCCC=CCC=O,,151,,,,,,
O=C(C(F)(F)Cl)C(F)(F)Cl,,44.5,,,,,,

# Same assay, conditions: fish
SMILES,log10 BCF,log10 biotransformation half-life (days)
Clc1ccc(Cl)c(-c2cc(Cl)c(Cl)cc2Cl)c1,5.47,2.46
Cc1ccc2c(c1)CCCC2(C)C,,0.83
CNc1ccc(C(=O)O)cc1,0.38,
O=[N+]([O-])c1cc(Cl)cc(Cl)c1O,1.32,
CC1CC(C)(C)CC(OOC(C)(C)C)(OOC(C)(C)C)C1 (centres undefined),3.96,
O=C(O)c1cc2ccccc2cc1O,0.6,
CCCCOC(=O)c1ccccc1C(=O)OCCCC,2.22,-0.4
NCc1cccc(CN)c1,0.43,
CCCC(Cn1cncn1)c1ccc(Cl)cc1Cl (centres undefined),,1.19
Clc1cc(Cl)c(Oc2cc(Cl)c(Cl)cc2Cl)cc1Cl,,1.98
C=Cc1cccc(C=C)c1,2.54,0.59
